Source: patent US20250368648A1, “MULTI-CYCLIC IRAK AND FLT3 INHIBITING COMPOUNDS AND USES THEREOF” (CHILDREN'S HOSPITAL MEDICAL CENTER, priority 2022, published 2025)

What was measured:
[1] = target: T1, IRAK1 (Homo sapiens, UniProt P51617); assay: RBC HotSpot Kinase Assay, IRAK1; type: biochemical; conditions: HotSpot functional assay, isolated kinase enzyme, 33P-ATP
T1 construct: purchased RBC (Reaction Biology) HotSpot assay
Text: (§1) This assay uses the isolated kinase enzyme. This assay is very useful for determining competition of the inhibitor for ATP and/or substrates and for measuring the kinetics of enzyme inhibition. […] Unlike kinase binding assays that measure competition for ATP, the HotSpot Kinase Assay is a functional assay that measures catalytic activity; as such it measures relative functional potency regardless of the mechanism of enzyme inhibition. This assay uses the form of the various enzymes that are easiest to express, which may not necessarily be the form of the enzyme that exist in the cell. (Sometimes the carboxy terminus has been truncated to aid in expression, or, if it is a receptor kinase, the enzyme itself is isolated from the other parts of the receptor that are involved in regulating kinase activity.)
(§2) The reagent used was as follows: Base Reaction buffer; 20 mM Hepes (pH 7.5), 10 mM MgCl2, 1 mM EGTA, 0.01% Brij35, 0.02 mg/mi BSA, 0.1 mM Na3VO4, 2 mM DTT, 1% DMSO. Required cofactors were added individually to each kinase reaction.
(§3) The reaction procedure was as follows: • 1) Substrates were prepared in freshly prepared Reaction Buffer. • 2) Any required cofactors were delivered to the substrate solution above. • 3) Kinase was delivered into the substrate solution and gently mixed. • 4) Compounds were delivered in 100% DMSO into the kinase reaction mixture by Acoustic technology (Echo550, nanoliter range), followed by incubation for 20 min at room temp. • 5) ^33P-ATP was delivered into the reaction mixture to initiate the reaction. • 6) The mixture was incubated for 2 hours at room temperature. • 7) Kinase activity was detected by P81 filter-binding method.

[2] = system: MOLM14 D835Y cells; assay: MOLM14 D835Y cell viability assay (Cell Titer Glo); type: cell-based
Protocol: The cell line has activated FLT3 receptors which carry additional resistance mutations in the kinase domain (D835Y).
MOLM14 D835Y cells were grown in RPMI-1640 media supplemented with 20% fetal bovine serum (FBS). […] After cell addition, 23 nL of test compound were transferred into individual wells (22 doses tested for each test compound, with a 1:2 dilution series starting at 10 μM) via a 1536 pin-tool. Bortezomib (final concentration 2.3 μM) was used as a positive control for cell cytotoxicity.

[3] = target: T2, IRAK4 (Homo sapiens, UniProt Q9NWZ3); assay: RBC HotSpot Kinase Assay, IRAK4; type: biochemical; parameters: purchased RBC (Reaction Biology) HotSpot assay; conditions: HotSpot functional assay, isolated kinase enzyme, 33P-ATP
T2 sequence (Q9NWZ3 1-460): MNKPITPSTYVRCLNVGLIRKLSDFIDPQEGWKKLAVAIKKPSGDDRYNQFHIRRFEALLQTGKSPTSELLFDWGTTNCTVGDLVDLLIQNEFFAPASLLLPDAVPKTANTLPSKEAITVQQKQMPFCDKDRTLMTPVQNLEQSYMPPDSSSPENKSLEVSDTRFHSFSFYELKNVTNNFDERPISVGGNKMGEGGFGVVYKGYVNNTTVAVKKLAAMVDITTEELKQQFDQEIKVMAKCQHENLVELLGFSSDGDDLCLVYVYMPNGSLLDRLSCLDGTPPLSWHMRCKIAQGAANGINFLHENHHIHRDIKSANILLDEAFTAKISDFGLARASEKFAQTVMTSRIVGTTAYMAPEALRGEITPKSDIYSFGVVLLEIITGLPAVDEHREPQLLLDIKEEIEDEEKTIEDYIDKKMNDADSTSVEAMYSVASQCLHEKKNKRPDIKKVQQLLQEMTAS
Text: as §1, §2, §3

[4] = target: T3, FLT3 (Homo sapiens, UniProt P36888); assay: RBC HotSpot Kinase Assay, FLT3; type: biochemical; parameters: purchased RBC (Reaction Biology) HotSpot assay; conditions: HotSpot functional assay, isolated kinase enzyme, 33P-ATP
T3 sequence (P36888 27-993): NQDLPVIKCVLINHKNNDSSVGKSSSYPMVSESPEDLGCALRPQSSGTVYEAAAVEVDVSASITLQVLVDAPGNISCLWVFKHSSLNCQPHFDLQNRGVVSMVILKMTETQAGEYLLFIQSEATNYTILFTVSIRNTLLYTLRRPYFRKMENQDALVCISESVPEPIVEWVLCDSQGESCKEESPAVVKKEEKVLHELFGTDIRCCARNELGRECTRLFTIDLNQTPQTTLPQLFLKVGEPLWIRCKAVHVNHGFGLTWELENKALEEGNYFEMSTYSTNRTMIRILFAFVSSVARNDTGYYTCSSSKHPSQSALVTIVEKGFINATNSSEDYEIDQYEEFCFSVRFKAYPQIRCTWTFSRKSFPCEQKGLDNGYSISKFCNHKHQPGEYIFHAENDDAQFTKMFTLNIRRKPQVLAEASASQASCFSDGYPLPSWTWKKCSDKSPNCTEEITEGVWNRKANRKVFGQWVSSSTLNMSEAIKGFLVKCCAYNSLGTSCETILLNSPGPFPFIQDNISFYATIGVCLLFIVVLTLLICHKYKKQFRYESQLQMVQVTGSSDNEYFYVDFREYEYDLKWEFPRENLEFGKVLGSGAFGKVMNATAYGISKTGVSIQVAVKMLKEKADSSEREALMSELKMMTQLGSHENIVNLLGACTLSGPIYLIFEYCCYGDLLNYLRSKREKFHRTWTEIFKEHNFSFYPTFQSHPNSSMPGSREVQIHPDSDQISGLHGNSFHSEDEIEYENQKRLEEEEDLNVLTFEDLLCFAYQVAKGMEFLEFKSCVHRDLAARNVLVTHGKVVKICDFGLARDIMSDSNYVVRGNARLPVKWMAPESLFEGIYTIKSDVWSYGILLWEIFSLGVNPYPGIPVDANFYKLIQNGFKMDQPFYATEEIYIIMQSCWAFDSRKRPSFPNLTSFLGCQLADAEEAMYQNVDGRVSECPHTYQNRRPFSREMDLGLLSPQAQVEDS
Text: as §1, §2, §3

T1 sequence (P51617 whole entry): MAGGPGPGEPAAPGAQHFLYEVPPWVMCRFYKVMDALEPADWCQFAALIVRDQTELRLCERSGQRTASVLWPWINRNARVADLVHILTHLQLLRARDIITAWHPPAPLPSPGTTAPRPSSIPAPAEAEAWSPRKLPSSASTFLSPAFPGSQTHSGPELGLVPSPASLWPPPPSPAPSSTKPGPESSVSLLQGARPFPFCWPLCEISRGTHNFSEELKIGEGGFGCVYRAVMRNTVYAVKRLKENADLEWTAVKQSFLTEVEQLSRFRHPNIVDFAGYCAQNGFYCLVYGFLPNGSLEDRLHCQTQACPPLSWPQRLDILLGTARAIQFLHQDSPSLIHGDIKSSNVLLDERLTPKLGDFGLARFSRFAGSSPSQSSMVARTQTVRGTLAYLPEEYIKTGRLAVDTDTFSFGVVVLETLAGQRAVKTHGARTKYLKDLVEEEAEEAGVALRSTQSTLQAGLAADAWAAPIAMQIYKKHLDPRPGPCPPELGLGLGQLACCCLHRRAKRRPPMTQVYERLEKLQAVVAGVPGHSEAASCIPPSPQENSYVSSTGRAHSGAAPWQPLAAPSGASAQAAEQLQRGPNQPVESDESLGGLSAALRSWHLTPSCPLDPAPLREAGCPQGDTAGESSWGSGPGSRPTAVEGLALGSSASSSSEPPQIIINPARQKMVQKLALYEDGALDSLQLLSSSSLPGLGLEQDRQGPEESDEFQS

SMILES	IC50 [1]	IC50 ([2]; 48 hours)	IC50 [3]	IC50 [4]	IC50 ([2]; Homo sapiens, MOLM-14, 48 h)
COc1cc2ncc(-c3nc(N[C@H]4CNCC[C@@H]4F)c(F)cc3F)n2nc1C(C)(O)C(F)(F)F (single isomer, unassigned) [Compound 76a]	580 nM	81 nM	78 nM	< 0.5 nM	–
COc1cc2ncc(-c3nc(N[C@H]4CNC[C@@H]4F)c(F)cc3F)n2nc1C(C)(O)C(F)(F)F (single isomer, unassigned) [Compound 78a]	983 nM	229 nM	92 nM	1 nM	–
COc1cc2ncc(-c3nc(N[C@@H]4CCCNC4)c(F)cc3F)n2nc1C(C)(O)C(F)(F)F (single isomer, unassigned) [Compound 79a]	822 nM	81 nM	521 nM	< 0.5 nM	–
COc1cc2ncc(-c3ccc(F)c(N[C@H]4CNCC[C@@H]4F)n3)n2nc1C(C)(C)O [Compound 1a, 2-(3-(5-fluoro-6-(((3S,4S)-4-fluoropiperidin-3-yl)amino)pyridin-2-yl)-7-methoxyimidazo[1,2-b]pyridazin-6-yl)propan-2-ol]	2340 nM	–	158 nM	3 nM	182 nM
COc1cc2ncc(-c3nc(N[C@H]4CNC[C@@H]4F)ccc3F)n2nc1C(C)(C)O [Compound 2a, 2-(3-(3-fluoro-6-(((3S,4S)-4-fluoropyrrolidin-3-yl)amino)pyridin-2-yl)-7-methoxyimidazo[1,2-b]pyridazin-6-yl)propan-2-ol]	610 nM	–	24 nM	0.8 nM	129 nM
COc1cc2ncc(-c3nc(N[C@@H]4CCCNC4)ccc3F)n2nc1C(C)(C)O [Compound 3a]	437 nM	–	148 nM	1 nM	46 nM
COc1cc2ncc(-c3nc(N[C@H]4CNCC[C@@H]4F)ccc3F)n2nc1C(C)(C)O [Compound 4a, 2-(3-(3-fluoro-6-(((3S,4S)-4-fluoropiperidin-3-yl)amino)pyridin-2-yl)-7-methoxyimidazo[1,2-b]pyridazin-6-yl)propan-2-ol]	221 nM	–	27 nM	< 0.5 nM	29 nM
COc1cc2ncc(-c3ccc(F)c(N[C@H]4CNC[C@@H]4F)n3)n2nc1C(C)(C)O [Compound 5a, 2-(3-(5-fluoro-6-(((3S,4S)-4-fluoropyrrolidin-3-yl)amino)pyridin-2-yl)-7-methoxyimidazo[1,2-b]pyridazin-6-yl)propan-2-ol]	2670 nM	–	70 nM	7 nM	408 nM
COc1cc2ncc(-c3ccc(F)c(N[C@@H]4CCCNC4)n3)n2nc1C(C)(C)O [Compound 6a, (R)-2-(3-(5-fluoro-6-(piperidin-3-ylamino)pyridin-2-yl)-7-methoxyimidazo[1,2-b]pyridazin-6-yl)propan-2-ol]	2850 nM	–	558 nM	9 nM	289 nM
COc1cc2ncc(-c3nc(N[C@H]4CNC[C@@H]4F)c(F)cc3F)n2nc1C1CCC1 [Compound 13a, 6-(6-cyclobutyl-7-methoxyimidazo[1,2-b]pyridazin-3-yl)-3,5-difluoro-N-((3S,4S)-4-fluoropyrrolidin-3-yl)pyridin-2-amine]	6 nM	–	1 nM	< 0.5 nM	58 nM
COc1cc2ncc(-c3nc(N[C@@H]4CCCNC4)c(F)cc3F)n2nc1C1CCC1 [Compound 14a, (R)-6-(6-cyclobutyl-7-methoxyimidazo[1,2-b]pyridazin-3-yl)-3,5-difluoro-N-(piperidin-3-yl)pyridin-2-amine]	12 nM	–	4 nM	< 0.5 nM	15 nM
COc1cc2ncc(-c3cccc(N[C@H]4CNC[C@@H]4F)n3)n2nc1N1CCCC1=O [Compound 25a, 1-(3-(6-(((3S,4S)-4-fluoropyrrolidin-3-yl)amino)pyridin-2-yl)-7-methoxyimidazo[1,2-b]pyridazin-6-yl)pyrrolidin-2-one]	283 nM	–	336 nM	1 nM	1020 nM
COc1cc2ncc(-c3cccc(N[C@H]4CNCC[C@@H]4F)n3)n2nc1N1CCCC1=O [Compound 26a, 1-(3-(6-(((3S,4S)-4-fluoropiperidin-3-yl)amino)pyridin-2-yl)-7-methoxyimidazo[1,2-b]pyridazin-6-yl)pyrrolidin-2-one]	290 nM	–	237 nM	0.9 nM	257 nM
COc1cc2ncc(-c3ccc(C)c(N[C@H]4CNCC[C@@H]4F)n3)n2nc1C1CC1 [Compound 38a, 6-(6-cyclopropyl-7-methoxyimidazo[1,2-b]pyridazin-3-yl)-N-((3S,4S)-4-fluoropiperidin-3-yl)-3-methylpyridin-2-amine]	> 10000 nM	–	7080 nM	50 nM	2890 nM
COc1cc2ncc(-c3nc(N[C@@H]4CCCNC4)c(F)cc3F)n2nc1N1CCCS1(=O)=O [Compound 68a, (R)-2-(3-(3,5-difluoro-6-(piperidin-3-ylamino)pyridin-2-yl)-7-methoxyimidazo[1,2-b]pyridazin-6-yl)isothiazolidine 1,1-dioxide]	19 nM	–	7 nM	< 0.5 nM	–
COc1cc2ncc(-c3nc(N[C@H]4CNC[C@@H]4F)c(F)cc3F)n2nc1N1CCCS1(=O)=O [Compound 69a, 2-(3-(3,5-difluoro-6-(((3S,4S)-4-fluoropyrrolidin-3-yl)amino)pyridin-2-yl)-7-methoxyimidazo[1,2-b]pyridazin-6-yl)isothiazolidine 1,1-dioxide]	125 nM	–	4 nM	< 0.5 nM	–
COc1cc2ncc(-c3nc(N[C@H]4CNCC[C@@H]4F)c(F)cc3F)n2nc1N1CCCS1(=O)=O [Compound 70a, 2-(3-(3,5-difluoro-6-(((3S,4S)-4-fluoropiperidin-3-yl)amino)pyridin-2-yl)-7-methoxyimidazo[1,2-b]pyridazin-6-yl)isothiazolidine 1,1-dioxide]	60 nM	–	10 nM	< 0.5 nM	–
COc1cc2ncc(-c3nc(N[C@@H]4CCCNC4)c(F)cc3F)n2nc1C1COC1 [Compound 72a, (R)-3,5-difluoro-6-(7-methoxy-6-(oxetan-3-yl)imidazo[1,2-b]pyridazin-3-yl)-N-(piperidin-3-yl)pyridin-2-amine]	498 nM	–	28 nM	< 0.5 nM	–
